Measured values from patent publication US9629817B2 (priority 2005, dated 2017).
Read-outs that look alike come from different tables or passages of the source.

Test system: Pigs
Settings: riluzole ip 8 mg/kg; for average number of episodes of sustained arrhythmias: VT or VF lasting more than 15 seconds
Description: Pigs of either sex and weighing between 20 and 35 kg were each anaesthetised with thiopentone sodium (10-15 mg/kg iv) and maintained under general anaesthesia with isoflurane (0.5-2% in oxygen). Artificial ventilation was maintained at a volume of 15 ml/kg and a rate of 12 breaths per minute. […] Subsequent to a mid-stemotomy and division of the pericardium, the left anterior coronary artery (LAD) was occluded mid-way along its length by permanent ligation.

[1] = first three hours post commencement of hypoxia
[2] = phase 2 (60-180 minutes post LAD occlusion)

Structure (SMILES): Nc1nc2ccc(OC(F)(F)F)cc2s1 [riluzole, 2-amino-6-tritluoromethoxybenzothiazole]
- animals which developed any non-sustained arrhythmias [1]: 50%
- animals which developed any sustained arrhythmias [1]: 50%
- number of spontaneous PVCs (single), riluzole vs control group (phase 1a (first 15 minutes of hypoxia following LAD occlusion)): no significant difference
- average number of episodes of sustained arrhythmias (phase 1a): 0.17 episodes per animal
- fall in number of episodes of non-sustained arrhythmias vs control group (phase 1a): 43%
- fall in number of episodes of sustained arrhythmias vs control group (phase 1a): 58%
- number of geminy beats (bigeminy, trigeminy and quadrigeminy) occurring spontaneously, riluzole vs control group (phase 1a): no significant
- number of multiple PVCs occurring spontaneously, riluzole vs control group (phase 1a): no significant difference
- number of spontaneous PVCs (single), riluzole vs control group (phase 1b (15-60 minutes post LAD occlusion)): no significant difference
- average number of episodes of sustained arrhythmias (phase 1b): 0.33 episodes per animal
- fall in number of episodes of non-sustained arrhythmias vs control group (phase 1b): 35%
- fall in number of episodes of sustained arrhythmias vs control group (phase 1b): 86%
- number of geminy beats (bigeminy, trigeminy and quadrigeminy) occurring spontaneously, riluzole vs control group (phase 1b): no significant
- number of multiple PVCs occurring spontaneously, riluzole vs control group (phase 1b): no significant difference
- average number of PVCs (single) [2]: 17
- drop in average number of PVCs (single) vs control group [2]: 91%
- average number of episodes of sustained arrhythmias (phase 2): 0.33 episodes per animal
- average number of geminy beats (phase 2): 0
- average number of multiple PVCs (phase 2): 7
- drop in average number of geminy beats vs control group (phase 2): 100%
- drop in average number of multiple PVCs vs control group (phase 2): 93%
- fall in number of episodes of non-sustained arrhythmias vs control group (phase 2): 92%
- fall in number of episodes of sustained arrhythmias vs control group (phase 2): 90%
